Measured values as given in publication PMC10287695, “Non-covalent inhibitors of thioredoxin glutathione reductase with schistosomicidal activity in vivo” (Nature Communications, 2023).
Where “and” joins values, the source holds several entries; their conditions need not be identical. Equal entries are not always repeated.

Test system: TGR in newly transformed schistosomula (NTS)
Assay: TGR inhibition in NTS with TRFS-Green fluorescent probe;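 further: untreated reference is NTS exposed to TRFS-Green probe alone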
Format: cell-based, S. mansoni
Conditions: NTS
Procedure: TGR inhibition in NTS was assessed using a fluorescent probe TRFS-Green (Medchemexpress)[43]. NTS prepared as previously described and cultured in M199 supplemented with 5.5 mM D-glucose, penicillin-streptomycin and 5% heat inactivated fetal bovine serum were incubated at 37 °C in a clear bottom flat well plate in a 5% CO2 incubator overnight. […] NTS were further treated with TRFS-Green (10 µM) for additional 4 h and rinsed with M199 medium to remove residual TRFS-Green. Fluorescence images were obtained using Keyence BZ-X800. The quantification of fluorescence intensity upon the uptake of TRFS-Green by NTS was performed by a fluorescent microplate imager (BioTek Cytation3) (excitation, 438 nm; emission, 538 nm) hourly for 5 h and after 24 h.

`Cc1oc(-c2ccc3c(c2)OCO3)nc1CN[C@@H]1C[C@@H]2C[C@H]([C@H]1C)C2(C)C` [C1 (8VP70)] was tested, and the “TGR inhibition visualized by TRFS-Green, Average” value (1hr, 5 µM) was 10571.8, the “TGR inhibition visualized by TRFS-Green, single replicate” value (1hr, 5 µM) was 10560.7 and 10583 and the “TGR inhibition visualized by TRFS-Green, Average” value (1hr, 15 µM) was 9457. For the same compound, the “TGR inhibition visualized by TRFS-Green, single replicate” value (1hr, 15 µM) was 9312 and 9602, the “TGR inhibition visualized by TRFS-Green, Average” value (1hr, 30 µM) was 9252.5 and the “TGR inhibition visualized by TRFS-Green, single replicate” value (1hr, 30 µM) was 9204 and 9301. For the same compound, the “TGR inhibition visualized by TRFS-Green, Average” value (2hr, 5 µM) was 14162, the “TGR inhibition visualized by TRFS-Green, single replicate” value (2hr, 5 µM) was 14242 and 14082 and the “TGR inhibition visualized by TRFS-Green, Average” value (2hr, 15 µM) was 13529. For the same compound, the “TGR inhibition visualized by TRFS-Green, single replicate” value (2hr, 15 µM) was 13095 and 13963, the “TGR inhibition visualized by TRFS-Green, Average” value (2hr, 30 µM) was 11887.5 and the “TGR inhibition visualized by TRFS-Green, single replicate” value (2hr, 30 µM) was 11941 and 11834. The “TGR inhibition visualized by TRFS-Green, Average” value (3hr, 5 µM) was 23711, the “TGR inhibition visualized by TRFS-Green, single replicate” value (3hr, 5 µM) was 23581 and 23841 and the “TGR inhibition visualized by TRFS-Green, Average” value (3hr, 15 µM) was 21817.5. For the same compound, the “TGR inhibition visualized by TRFS-Green, single replicate” value (3hr, 15 µM) was 21984 and 21651, the “TGR inhibition visualized by TRFS-Green, Average” value (3hr, 30 µM) was 16831 and the “TGR inhibition visualized by TRFS-Green, single replicate” value (3hr, 30 µM) was 16892 and 16770. The “TGR inhibition visualized by TRFS-Green, Average” value (4hr, 5 µM) was 25462.5, the “TGR inhibition visualized by TRFS-Green, single replicate” value (4hr, 5 µM) was 25241 and 25684 and the “TGR inhibition visualized by TRFS-Green, Average” value (4hr, 15 µM) was 21898. The “TGR inhibition visualized by TRFS-Green, single replicate” value (4hr, 15 µM) was 21795 and 22001, the “TGR inhibition visualized by TRFS-Green, Average” value (4hr, 30 µM) was 16836.5 and the “TGR inhibition visualized by TRFS-Green, single replicate” value (4hr, 30 µM) was 16939 and 16734. For the same compound, the “TGR inhibition visualized by TRFS-Green, Average” value (5hr, 5 µM) was 26920, the “TGR inhibition visualized by TRFS-Green, single replicate” value (5hr, 5 µM) was 26917 and 26923 and the “TGR inhibition visualized by TRFS-Green, Average” value (5hr, 15 µM) was 22092. For the same compound, the “TGR inhibition visualized by TRFS-Green, single replicate” value (5hr, 15 µM) was 23039 and 21145, the “TGR inhibition visualized by TRFS-Green, Average” value (5hr, 30 µM) was 16893.5 and the “TGR inhibition visualized by TRFS-Green, single replicate” value (5hr, 30 µM) was 16853 and 16934. For the same compound, the “TGR inhibition visualized by TRFS-Green, Average” value (24hr, 5 µM) was 28552, the “TGR inhibition visualized by TRFS-Green, single replicate” value (24hr, 5 µM) was 28103 and 29001 and the “TGR inhibition visualized by TRFS-Green, Average” value (24hr, 15 µM) was 23755.5. For the same compound, the “TGR inhibition visualized by TRFS-Green, single replicate” value (24hr, 15 µM) was 23599 and 23912, the “TGR inhibition visualized by TRFS-Green, Average” value (24hr, 30 µM) was 16807 and the “TGR inhibition visualized by TRFS-Green, single replicate” value (24hr, 30 µM) was 16780 and 16834.
With `CCc1ccccc1-c1nc(CN[C@@H]2C[C@@H]3C[C@H]([C@H]2C)C3(C)C)c(C)o1` [C2 (8VP101)] the “TGR inhibition visualized by TRFS-Green, Average” value (1hr, 5 µM) was 10460.5, the “TGR inhibition visualized by TRFS-Green, single replicate” value (1hr, 5 µM) was 10308 and 10613 and the “TGR inhibition visualized by TRFS-Green, Average” value (1hr, 15 µM) was 10104. The “TGR inhibition visualized by TRFS-Green, single replicate” value (1hr, 15 µM) was 10086 and 10122, the “TGR inhibition visualized by TRFS-Green, Average” value (1hr, 30 µM) was 9753 and the “TGR inhibition visualized by TRFS-Green, single replicate” value (1hr, 30 µM) was 9694 and 9812. For the same compound, the “TGR inhibition visualized by TRFS-Green, Average” value (2hr, 5 µM) was 13787, the “TGR inhibition visualized by TRFS-Green, single replicate” value (2hr, 5 µM) was 13840 and 13734 and the “TGR inhibition visualized by TRFS-Green, Average” value (2hr, 15 µM) was 11633.5. The “TGR inhibition visualized by TRFS-Green, single replicate” value (2hr, 15 µM) was 11622 and 11645, the “TGR inhibition visualized by TRFS-Green, Average” value (2hr, 30 µM) was 11195 and the “TGR inhibition visualized by TRFS-Green, single replicate” value (2hr, 30 µM) was 11148 and 11242. The “TGR inhibition visualized by TRFS-Green, Average” value (3hr, 5 µM) was 19344, the “TGR inhibition visualized by TRFS-Green, single replicate” value (3hr, 5 µM) was 19467 and 19221 and the “TGR inhibition visualized by TRFS-Green, Average” value (3hr, 15 µM) was 14723.5. The “TGR inhibition visualized by TRFS-Green, single replicate” value (3hr, 15 µM) was 14460 and 14987, the “TGR inhibition visualized by TRFS-Green, Average” value (3hr, 30 µM) was 13932.5 and the “TGR inhibition visualized by TRFS-Green, single replicate” value (3hr, 30 µM) was 14033 and 13832. For the same compound, the “TGR inhibition visualized by TRFS-Green, Average” value (4hr, 5 µM) was 23362.5, the “TGR inhibition visualized by TRFS-Green, single replicate” value (4hr, 5 µM) was 23074 and 23651 and the “TGR inhibition visualized by TRFS-Green, Average” value (4hr, 15 µM) was 14824.5. For the same compound, the “TGR inhibition visualized by TRFS-Green, single replicate” value (4hr, 15 µM) was 14826 and 14823, the “TGR inhibition visualized by TRFS-Green, Average” value (4hr, 30 µM) was 13941.5 and the “TGR inhibition visualized by TRFS-Green, single replicate” value (4hr, 30 µM) was 13992 and 13891. The “TGR inhibition visualized by TRFS-Green, Average” value (5hr, 5 µM) was 26593, the “TGR inhibition visualized by TRFS-Green, single replicate” value (5hr, 5 µM) was 26274 and 26912 and the “TGR inhibition visualized by TRFS-Green, Average” value (5hr, 15 µM) was 16217. For the same compound, the “TGR inhibition visualized by TRFS-Green, single replicate” value (5hr, 15 µM) was 16278 and 16156, the “TGR inhibition visualized by TRFS-Green, Average” value (5hr, 30 µM) was 14810 and the “TGR inhibition visualized by TRFS-Green, single replicate” value (5hr, 30 µM) was 14697 and 14923. For the same compound, the “TGR inhibition visualized by TRFS-Green, Average” value (24hr, 5 µM) was 29329.8, the “TGR inhibition visualized by TRFS-Green, single replicate” value (24hr, 5 µM) was 29329.8 and the “TGR inhibition visualized by TRFS-Green, Average” value (24hr, 15 µM) was 17780.7. For the same compound, the “TGR inhibition visualized by TRFS-Green, single replicate” value (24hr, 15 µM) was 17780.7, the “TGR inhibition visualized by TRFS-Green, Average” value (24hr, 30 µM) was 15410.9 and the “TGR inhibition visualized by TRFS-Green, single replicate” value (24hr, 30 µM) was 15410.9.
For `Cc1oc(C2CCCCC2)nc1CN[C@@H]1C[C@@H]2C[C@H]([C@H]1C)C2(C)C` [C4 (8VP121-1)], the “TGR inhibition visualized by TRFS-Green, Average” value (1hr, 5 µM) was 12224.5, the “TGR inhibition visualized by TRFS-Green, single replicate” value (1hr, 5 µM) was 12022 and 12427 and the “TGR inhibition visualized by TRFS-Green, Average” value (1hr, 15 µM) was 11617.5. For the same compound, the “TGR inhibition visualized by TRFS-Green, single replicate” value (1hr, 15 µM) was 11812 and 11423, the “TGR inhibition visualized by TRFS-Green, Average” value (1hr, 30 µM) was 10356 and the “TGR inhibition visualized by TRFS-Green, single replicate” value (1hr, 30 µM) was 10371 and 10341. The “TGR inhibition visualized by TRFS-Green, Average” value (2hr, 5 µM) was 19189, the “TGR inhibition visualized by TRFS-Green, single replicate” value (2hr, 5 µM) was 19355 and 19023 and the “TGR inhibition visualized by TRFS-Green, Average” value (2hr, 15 µM) was 17814.5. For the same compound, the “TGR inhibition visualized by TRFS-Green, single replicate” value (2hr, 15 µM) was 17877 and 17752, the “TGR inhibition visualized by TRFS-Green, Average” value (2hr, 30 µM) was 13785 and the “TGR inhibition visualized by TRFS-Green, single replicate” value (2hr, 30 µM) was 13959 and 13611. The “TGR inhibition visualized by TRFS-Green, Average” value (3hr, 5 µM) was 24561, the “TGR inhibition visualized by TRFS-Green, single replicate” value (3hr, 5 µM) was 24110 and 25012 and the “TGR inhibition visualized by TRFS-Green, Average” value (3hr, 15 µM) was 22452. The “TGR inhibition visualized by TRFS-Green, single replicate” value (3hr, 15 µM) was 22972 and 21932, the “TGR inhibition visualized by TRFS-Green, Average” value (3hr, 30 µM) was 19172 and the “TGR inhibition visualized by TRFS-Green, single replicate” value (3hr, 30 µM) was 19108 and 19236. The “TGR inhibition visualized by TRFS-Green, Average” value (4hr, 5 µM) was 26229, the “TGR inhibition visualized by TRFS-Green, single replicate” value (4hr, 5 µM) was 26469 and 25989 and the “TGR inhibition visualized by TRFS-Green, Average” value (4hr, 15 µM) was 23381.5. For the same compound, the “TGR inhibition visualized by TRFS-Green, single replicate” value (4hr, 15 µM) was 23782 and 22981, the “TGR inhibition visualized by TRFS-Green, Average” value (4hr, 30 µM) was 19196 and the “TGR inhibition visualized by TRFS-Green, single replicate” value (4hr, 30 µM) was 19157 and 19235. For the same compound, the “TGR inhibition visualized by TRFS-Green, Average” value (5hr, 5 µM) was 27106, the “TGR inhibition visualized by TRFS-Green, single replicate” value (5hr, 5 µM) was 27097 and 27115 and the “TGR inhibition visualized by TRFS-Green, Average” value (5hr, 15 µM) was 23897.5. The “TGR inhibition visualized by TRFS-Green, single replicate” value (5hr, 15 µM) was 23926 and 23869, the “TGR inhibition visualized by TRFS-Green, Average” value (5hr, 30 µM) was 21898.5 and the “TGR inhibition visualized by TRFS-Green, single replicate” value (5hr, 30 µM) was 21774 and 22023. The “TGR inhibition visualized by TRFS-Green, Average” value (24hr, 5 µM) was 29485, the “TGR inhibition visualized by TRFS-Green, single replicate” value (24hr, 5 µM) was 29989 and 28981 and the “TGR inhibition visualized by TRFS-Green, Average” value (24hr, 15 µM) was 27619.5. The “TGR inhibition visualized by TRFS-Green, single replicate” value (24hr, 15 µM) was 27128 and 28111, the “TGR inhibition visualized by TRFS-Green, Average” value (24hr, 30 µM) was 25005.5 and the “TGR inhibition visualized by TRFS-Green, single replicate” value (24hr, 30 µM) was 25040 and 24971.
